pKd: −log10 of the molar value. Entries after “also recorded” stand apart in the source; their conditions may differ. Read-outs that look alike come from different tables or passages of the source.
What was measured:
[1] = MM xenograft mouse model, body weight / systemic toxicity; format: in vivo, C.B.-17 SCID mice; conditions: 1 mg/kg bortezomib equivalent, intravenous, days 1, 4, 8, and 11
Description: MM Xenograft Mouse Model. C.B.-17 SCID mice (Harlan Laboratories) were irradiated with 150 rad and were inoculated subcutaneously with 5×10^6 NCI-H929 cells. When tumors were palpable, mice were distributed into 6 groups of 5 mice and were treated intravenously with the various bortezomib pro-drugs, free bortezomib, or vehicle (PBS), on days 1, 4, 8, and 11. Animals were monitored for body weight and tumor volume.
Liposomal Pro-Drugs Inhibit Tumor Growth with Reduced Systemic Toxicity In Vivo. […] Thus, in vivo studies were performed on C.B-17 SCID mice injected with NCI-H929 tumors to evaluate the efficacy of the liposomal pro-drugs in inhibiting tumor growth and limiting toxicity. The mice were divided into six groups (control, free bortezomib, and one group for each pro-drug) of five mice. The mice were monitored for body weight and tumor volume every other day. When the tumors became palpable, intravenous injections of the respective bortezomib formulations at a dose of 1 mg/kg bortezomib equivalent nanoparticles were performed on days 1, 4, 8, and 11.

[2] = test system: VLA-4-overexpressing multiple myeloma cells; test: In vitro nanoparticle uptake, result stated jointly for the myeloma lines; format: cell-based; conditions: competition experiment, NCI-H929 and MM.1S
Description: In Vitro Liposome Uptake and Binding Assays. 1×10^5 cells/well were plated 24 hours prior to each experiment in a 24 well dish. Liposomes were added at 100 μM phospholipid concentration and incubated for 3 hours at 37° C. 0.2% fluorescein PE was added as a fluorescent marker to each liposomal formulation. For adherent cells, after incubation, cells were washed 3 times with PBS, trypsinized, and analyzed via flow cytometry. For suspension cells, after incubation, cells were washed 3 times with PBS and analyzed via flow cytometry. For binding assays, adherent cells were scraped from the surface of a confluent dish, placed in growth media, and incubated on ice for 30 minutes. Liposomes were added at variable concentrations and incubated for 2 hours on ice. After incubation, cells were washed 3 times with PBS and analyzed via flow cytometry.
In Vitro Nanoparticle Uptake Assays. 1×10^5 cells/well were plated 24 hours prior to each experiment in a 24 well dish. Nanoparticles were added at 100 μM phospholipid concentration and incubated for 3 hours at 37° C. […] For suspension cells, after incubation, cells were washed 3 times with PBS and analyzed via flow cytometry. For adherent cells, after incubation, cells were washed 3 times with PBS, trypsinized, and analyzed via flow cytometry.

[3] = test system: NCI-H929 myeloma cells (VLA-4 expressing); test: Cell-based peptide binding assay (NCI-H929); conditions: fluorescein labeled peptide, flow cytometry, read-out: apparent Kd
Description: (§1) HER2 or VLA-4 Expression Analysis and Cell-Based Peptide Binding Assays. For antibody binding assays, cells were incubated with the primary antibody in binding buffer (1.5% BSA in PBS pH 7.4) on ice for 1 hour and were washed twice. Fluorescein conjugated secondary antibody was added for 1 hour on ice, samples were washed, and analyzed on Guava easyCyte 8HT flow cytometer (Millipore). For cell-based peptide binding assays, cells were incubated with increasing concentrations of fluorescein-conjugated peptides for 2 hours on ice. Samples were washed twice and analyzed on Guava easyCyte 8HT flow cytometer.
Receptor Expression Analysis and Cell-Based Peptide Binding Assays. For VLA-4 expression assays, cells were incubated with anti-CD49d (phycoerythrin) or anti-CD29 (fluorescein) antibodies (BD Biosciences, San Jose, Calif.) in binding buffer (1.5% BSA in PBS pH 7.4) on ice for 1 hour and were washed twice. For HER2 expression assays, cells were incubated with primary antibody in binding buffer on ice for 1 hour and washed twice. Fluorescein conjugated secondary antibody was added for 1 hour on ice, samples were washed, and analyzed on Guava easyCyte 8HT flow cytometer (Millipore). Isotype matched antibodies were used as negative controls. […] Samples were washed twice and analyzed on Guava easyCyte 8HT flow cytometer.

[4] = test system: MM.1S myeloma cells (VLA-4 expressing); test: Cell-based peptide binding assay (MM.1S); conditions: fluorescein labeled peptide, MM.1S cells, flow cytometry; read-out: apparent Kd
Description: Receptor Expression Analysis and Cell-Based Peptide Binding Assays. For VLA-4 expression assays, cells were incubated with anti-CD49d (phycoerythrin) or anti-CD29 (fluorescein) antibodies (BD Biosciences, San Jose, Calif.) in binding buffer (1.5% BSA in PBS pH 7.4) on ice for 1 hour and were washed twice. For HER2 expression assays, cells were incubated with primary antibody in binding buffer on ice for 1 hour and washed twice. Fluorescein conjugated secondary antibody was added for 1 hour on ice, samples were washed, and analyzed on Guava easyCyte 8HT flow cytometer (Millipore). Isotype matched antibodies were used as negative controls. For cell-based peptide binding assays, cells were incubated with increasing concentrations of fluorescein-conjugated peptides for 2 hours on ice. Samples were washed twice and analyzed on Guava easyCyte 8HT flow cytometer.

[5] = test system: MCF7 cells (very low HER2 expression); test: Cellular binding assay, flow cytometry (MCF7); conditions: fluorescein labeled peptide, negative control cell line
Description: as §1

[6] = molecular target: extracellular HER2 domain (Homo sapiens, UniProt P04626); conditions: reported by Berezov et al., recombinant soluble HER2 protein; cited from earlier work

In the case of `CC(C)C[C@H](NC(=O)[C@H](Cc1ccccc1)NC(=O)c1cnccn1)B(O)O` [free bortezomib, bortezomib], the “systemic toxicity” value [1] was “moribundity on day 7; also recorded: moribundity by day 7”.
With YCDPC [VLA4-pep] the “inhibition of uptake of VLA-4-targeted liposomes by excess free peptide” value ([2]; LPVLA4pep(K3)) was “efficient inhibition of uptake”, the “inhibition of uptake of VLA-4-targeted micelles by free peptide” value ([2]; micelles with VLA4pep(K3)) was “significant inhibition” and the pKd ([3]; listed as VLA4pep) was 6.60. It also gave a pKd [3] of about 6.60 and a pKd [4] of 6.60.
For YCDGFYACYMDV [HER2-pep], the “binding to MCF7 cells” value [5] is given as “minimal binding” and the pKd [6] is given as 6.82.
